The test system of assay [1] is Rhinovirus Type 74. Briefly: Inhibition of cytopathic effect in WI-38 cell culture tubes, rhinovirus type 74. The settings on record: Enterovirus, WI-38 cells, read-out: Inhibition grade, Rhinovirus Type 74; for inhibition at 25 µg/mL: 25 μg/ml. The class given is cell-based. As to the method:
(§1) The test compound was dissolved in an appropriate solvent (generally dimethyl sulfoxide) and incubated at 56° C. for at least 15 minutes and this solution was then used to prepare various test solutions having the desired concentration of test compound in preheated WI maintenance medium (49% Eagles, 49% medium 199, 2% fetal calf serum and antibiotics).
(§2) Triplicate cell culture tubes (WI-38 human embryonic lung cell culture tubes) were fed with 1 ml of medium containing the compound at specified concentrations and inoculated with 3-300 TCID50 (3-300 times the tissue culture infective dose 50, i.e., the dose required to infect 50% of the cell cultures tested). Simultaneous viral titrations were performed. The tissue cultures were supplemented with fresh medium when necessary (around 3-4 days) until viral titrations were completed.
(§3) The cell culture tubes were examined dialy for cytopathic effect. […] Comparisons were made at that time with the percentage of cell sheet destruction in tubes containing virus compound mixtures. Observed differences of 75% or more were graded "+", 74-50% as "±", and less than 50% as "-" inhibition.
Background: Protection from cytopathic effect is a common read-out in antiviral testing.

In assay [2] the test system is rhinovirus type 1A (RV-1A). Briefly: Tissue culture testing, rhinovirus type 1A in HeLa cells. Format: cell-based. The note with it: Enterovirus, 48 and 72 hours, NA = not active at the standard test conditions, read-out: RV-1A: lowest concentration of the compound necessary to cause a 50 percent reduction in cytopathic effect. The essentials:
(§4)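 HeLa monolayers, compound in Eagle's medium + fetal calf serum, then virus challenge; no-compound and no-virus controls. Value = lowest active concentration, μg/ml.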

In assay [3] the test system is rhinovirus type 8 (RV-8). Briefly: Tissue culture testing, rhinovirus type 8 in HeLa cells. The class given is cell-based. The note with it: Enterovirus, 48 and 72 hours, NA = not active at the standard test conditions, read-out: RV-8: lowest concentration of the compound necessary to cause a 50 percent reduction in cytopathic effect. As to the method:
Monolayered HeLa cells in 16 millimeter (mm) tissue culture dishes were treated with 1 ml of culture medium (Eagles medium supplemented with fetal calf serum) containing subject compound at an appropriate concentration or containing no compound at all. Culture media such as those described herein are more fully described in standard texts, as for example, Kuchler's Biochemical Methods in Cell Culture and Virology, Dowden, Hutchinson and Ross, Inc., Stroudsberg, PA (1977). Following treatment, cells were challenged with 0.05 ml of rhinovirus type 1A (RV-1A), rhinovirus type 2 (RV-2) or Coxsackie A21 virus (Cox A21) in culture medium. Some of the compounds were also tested against rhinovirus type 5 (RV-5), rhinovirus type 8 (RV-8) or rhinovirus type 64 (RV-64). Cell controls received no viruses.
^2 Lowest concentration of the compound (μg/ml) necessary to cause

The subject of assay [4] is Rhinovirus Type 21. Briefly: Inhibition of cytopathic effect in WI-38 cell culture tubes, rhinovirus type 21. Format: cell-based. The settings on record: Enterovirus, WI-38 cells, read-out: Inhibition grade, Rhinovirus Type 21; for inhibition at 25 µg/mL: 25 μg/ml. As to the method:
as §1, §2, §3

Assay [5] deals with Rhinovirus Type 58. The assay can be described thus: Inhibition of cytopathic effect in WI-38 cell culture tubes, rhinovirus type 58. Format: cell-based. The settings on record: Enterovirus, WI-38 cells, read-out: Inhibition grade, Rhinovirus Type 58; for inhibition at 25 µg/mL: 25 μg/ml. As to the method:
as §1, §2, §3

The test system of assay [6] is Rhinovirus Type 17. The assay can be described thus: Inhibition of cytopathic effect in WI-38 cell culture tubes, rhinovirus type 17. The class given is cell-based. The note with it: Enterovirus, WI-38 cells, read-out: Inhibition grade, Rhinovirus Type 17; for inhibition at 25 µg/mL: 25 μg/ml. As to the method: as §1, §2, §3
Assay [7] has as its system Rhinovirus Type 75. Briefly: Inhibition of cytopathic effect in WI-38 cell culture tubes, rhinovirus type 75. The class given is cell-based. The settings on record: Enterovirus, WI-38 cells, read-out: Inhibition grade, Rhinovirus Type 75; for inhibition at 25 µg/mL: 25 μg/ml. As to the method: as §1, §2, §3
Assay [8] has as its system Rhinovirus Type 6. Briefly: Inhibition of cytopathic effect in WI-38 cell culture tubes, rhinovirus type 6. The note with it: Enterovirus, WI-38 cells, read-out: Inhibition grade, Rhinovirus Type 6; for inhibition at 25 µg/mL: 25 μg/ml. Format: cell-based. As to the method: as §1, §2, §3
Assay [9] relates to Rhinovirus Type 10. The assay can be described thus: Inhibition of cytopathic effect in WI-38 cell culture tubes, rhinovirus type 10. Format: cell-based. The note with it: Enterovirus, WI-38 cells, read-out: Inhibition grade, Rhinovirus Type 10; for inhibition at 25 µg/mL: 25 μg/ml. As to the method: as §1, §2, §3
For assay [10], the system named is Rhinovirus Type 13. Briefly: Inhibition of cytopathic effect in WI-38 cell culture tubes, rhinovirus type 13. The settings on record: Enterovirus, WI-38 cells, read-out: Inhibition grade, Rhinovirus Type 13; for inhibition at 25 µg/mL: 25 μg/ml. Format: cell-based. As to the method: as §1, §2, §3
The subject of assay [11] is Coxsackie A21 virus. Briefly: Continuous Oral Feeding test in mice challenged IP with Coxsackie A21 virus. Format: in vivo. The settings on record: po, 0.06 % in diet, 240 h. The essentials:
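Mice (8 to 12 g) fed rodent chow containing 0.06% (weight percent) test compound from day 0, challenged IP on day 1 with 0.2 ml HeLa-grown virus at a dose giving 80 to 100% deaths within 10 days. Deaths recorded over 10 days versus controls; chi-square test, values >3.84 taken as active (95% confidence).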

The test system of assay [12] is Rhinovirus Type 59. Briefly: Inhibition of cytopathic effect in WI-38 cell culture tubes, rhinovirus type 59. The class given is cell-based. The settings on record: Enterovirus, WI-38 cells, read-out: Inhibition grade, Rhinovirus Type 59; for inhibition at 25 µg/mL: 25 μg/ml. As to the method:
as §1, §2, §3

In assay [13] the test system is rhinovirus type 64 (RV-64). The assay can be described thus: Tissue culture testing, rhinovirus type 64 in HeLa cells. The class given is cell-based. The note with it: Enterovirus, 48 and 72 hours, NA = not active at the standard test conditions, read-out: RV-64: lowest concentration of the compound necessary to cause a 50 percent reduction in cytopathic effect. In outline:
as §4

For assay [14], the system named is Rhinovirus Type 29. The assay can be described thus: Inhibition of cytopathic effect in WI-38 cell culture tubes, rhinovirus type 29. Format: cell-based. The settings on record: Enterovirus, WI-38 cells, read-out: Inhibition grade, Rhinovirus Type 29; for inhibition at 25 µg/mL: 25 μg/ml. As to the method:
as §1, §2, §3

In assay [15] the test system is Rhinovirus Type 60. Briefly: Inhibition of cytopathic effect in WI-38 cell culture tubes, rhinovirus type 60. The class given is cell-based. The settings on record: Enterovirus, WI-38 cells, read-out: Inhibition grade, Rhinovirus Type 60; for inhibition at 25 µg/mL: 25 μg/ml. As to the method:
as §1, §2, §3

Assay [16] deals with Hanks Untyped. Briefly: Inhibition of cytopathic effect in WI-38 cell culture tubes, Hanks Untyped. The class given is cell-based, rhinovirus. The settings on record: Enterovirus, WI-38 cells, read-out: Inhibition grade, Hanks Untyped; for inhibition at 25 µg/mL: 25 μg/ml. As to the method:
as §1, §2, §3

Assay [17] has as its system rhinovirus type 2 (RV-2). The assay can be described thus: Tissue culture testing, rhinovirus type 2 in HeLa cells. The settings on record: Enterovirus, 48 and 72 hours, NA = not active at the standard test conditions, read-out: RV-2: lowest concentration of the compound necessary to cause a 50 percent reduction in cytopathic effect. Format: cell-based. The essentials:
as §4

Assay [18] relates to Rhinovirus Type 81. Briefly: Inhibition of cytopathic effect in WI-38 cell culture tubes, rhinovirus type 81. The settings on record: Enterovirus, WI-38 cells, read-out: Inhibition grade, Rhinovirus Type 81; for inhibition at 25 µg/mL: 25 μg/ml. Format: cell-based. As to the method: as §1, §2, §3
The subject of assay [19] is Rhinovirus Type 4. The assay can be described thus: Inhibition of cytopathic effect in WI-38 cell culture tubes, rhinovirus type 4. The class given is cell-based. The settings on record: Enterovirus, WI-38 cells, read-out: Inhibition grade, Rhinovirus Type 4; for inhibition at 25 µg/mL: 25 μg/ml. As to the method: as §1, §2, §3
Assay [20] relates to Rhinovirus Type 56. Briefly: Inhibition of cytopathic effect in WI-38 cell culture tubes, rhinovirus type 56. Format: cell-based. The note with it: Enterovirus, WI-38 cells, read-out: Inhibition grade, Rhinovirus Type 56; for inhibition at 25 µg/mL: 25 μg/ml. As to the method:
as §1, §2, §3

Data on three molecules can be found in US4371537A, “Sulfur-substituted phenoxypyridines having antiviral activity” (The Dow Chemical Company, priority 1981, dated 1983).

Converted amounts (≈) assume the structure as drawn.

One may read the inhibition as the share of the control response that was lost under treatment. As for `CS(=O)(=O)c1ccc(Oc2ccc(C(=O)c3ccccc3)cc2)nc1` [Example 31, (4-((5-(methylsulfonyl)-2-pyridinyl)oxy)phenyl)phenylmethanone], the inhibition at 25 µg/mL in [1] was at least 75%; in assay [4], 50 to 74%; in assay [5] it was at least 75%; in assay [6], at least 75%; in [7], below 50%; in assay [8], 50 to 74%. In addition, the inhibition at 25 µg/mL in [9] was at least 75%; in assay [10], below 50%; in [12], at least 75%; in [14] it was at least 75%; in [15] it was at least 75%; in assay [16] it was at least 75%. Moreover, the inhibition at 25 µg/mL in assay [18], in assay [19] and in [20] was at least 75% each time. Further, the EC50 in assay [2] came to 12.5 µg/mL (≈ 35.4 µM); in assay [3], 6.25 µg/mL (≈ 17.7 µM); in assay [13] it was 2.5 µg/mL (≈ 7.07 µM); in [17], 5 µg/mL (≈ 14.1 µM). The “Continuous Oral Feeding X^2 (chi-square, deaths vs control)” value in assay [11] came out at 24.397.
For `CCS(=O)(=O)c1ccc(Oc2ccc(C(=O)c3ccccc3)cc2)nc1` [Example 43, (4-((5-(ethylsulfonyl)-2-pyridinyl)oxy)phenyl)phenylmethanone], the inhibition at 3 µg/mL in assay [1] (3.0 μg/ml) was 50 to 74%; in assay [4] (3.0 μg/ml), below 50%; in [5] (3.0 μg/ml) it was below 50%; in assay [6] (3.0 μg/ml), at least 75%; in assay [7] (3.0 μg/ml), below 50%; in assay [8] (3.0 μg/ml), below 50%. Also, the inhibition at 3 µg/mL in assay [9] (3.0 μg/ml) is below 50%; in assay [10] (3.0 μg/ml), below 50%; in [12] (3.0 μg/ml), below 50%; in assay [14] (3.0 μg/ml), at least 75%; in [15] (3.0 μg/ml), 50 to 74%; in [16] (3.0 μg/ml), 50 to 74%. Further, the results for the inhibition at 3 µg/mL in assay [18] (3.0 μg/ml), in [19] (3.0 μg/ml) and in [20] (3.0 μg/ml) were at least 75%, below 50% and below 50%, respectively. Moreover, the EC50 was at most 3.12 µg/mL in assay [2], 25 µg/mL (≈ 68 µM) in assay [3], 6.25 µg/mL (≈ 17 µM) in assay [13] and 6.25 µg/mL (≈ 17 µM) in [17]. Also, the “Continuous Oral Feeding X^2 (chi-square, deaths vs control)” value in assay [11] was 20.44.
Turning to `CCS(=O)(=O)c1ccc(Oc2ccc(Cl)c(Cl)c2)nc1` [Example 47, 2-(3,4-dichlorophenoxy)-5-(ethylsulfonyl)pyridine], the inhibition at 25 µg/mL is at least 75% in [1]; at least 75% in assay [4]; at least 75% in [5]; at least 75% in assay [6]; below 50% in [7]; 50 to 74% in [8]. Moreover, the inhibition at 25 µg/mL was at least 75% in [9]; below 50% in assay [10]; 50 to 74% in assay [12]; at least 75% in assay [14]; at least 75% in assay [15]; at least 75% in assay [16]. For the same molecule, the inhibition at 25 µg/mL in assay [18], in [19] and in [20] was at least 75% each time. Further, the EC50 in assay [2] was 0.312 µg/mL (≈ 0.941 µM); in assay [13], at most 0.312 µg/mL; in [17], 0.625 µg/mL (≈ 1.88 µM). In addition, in assay [11], the “Continuous Oral Feeding X^2 (chi-square, deaths vs control)” value is 1.10.
